In one experiment the test system is HSV-1. Description: Anti-viral assay: GFP-encoding HSV-1 infection of pre-treated BHK cells, infected cells counted. It is filed as cell-based, herpes simplex virus 1. The protocol:
(§1) BHK cells were incubated with decreasing concentration of the solubilized test compounds for approx. 1 h. All concentrations were analyzed by six independent replicates on a black 96-well plate (PerkinElmer). Cells were infected with GFP-encoding wildtype HSV-1 virus and incubated for two days. Two days after infection, HSV-1-infected cells and GFP expressing cells were directly counted using the PerkinElmer Ensight system with optical cell culture plates. The instrument was controlled by […]. Anti-viral assays for HHV8 and mCMV were performed accordingly.
The cells were subsequently infected with GFP-encoding HSV at a multiplicity of infection of 2.5, and infected GFP-expressing cells were counted one day after infection using the PerkinElmer Ensight system. […] Thus, the sugar is not required as potential co-factor for drug uptake.

A further experiment relates to HHV-8. Description: Anti-viral assay: GFP-encoding HHV-8 infection, infected cells counted. The experiment is classed as cell-based, Herpes virus 8. The method, then:
as §1
The concentrations of materials were again adjusted to the same levels of anthocyanins (except the single berry extracts). No treatment or only maltodextrin served as controls. The cells were subsequently infected with GFP-encoding HHV-8, and infected GFP-expressing cells were counted two days after infection using the PerkinElmer Ensight system.

Experiment [1] concerns HSV-1 related intracellular β-Amyloid deposition in SH-SY5Y (neuroblastoma) cells. Description: β-Amyloid assay: intracellular deposition of β-Amyloid in HHV-1-infected SH-SY5Y cells (immunofluorescence, qualitative). The experiment is classed as cell-based. The settings on record: 500, 250 and 125 μg/ml. The method, then: Samples were fixed using Histofix and permeabilized with 0.05% Triton X-100 in phosphate-buffered saline for 5 min. Blocking steps were performed with 3% bovine serum albumin for 1 h followed by primary antibody incubation with rabbit polyclonal anti-beta amyloid 1-42 and polyclonal goat anti-green fluorescent protein. Antibodies were diluted 1:100 and 1:1000, respectively, and were incubated overnight. To visualize β-Amyloid antibodies, donkey anti-rabbit AlexaFluor® 555 secondary antibodies were used (diluted 1:400); to detect the GFP antibodies donkey anti-goat AlexaFluor® 647 secondary antibodies (diluted 1:400) were used. The samples were then mounted in Fluoromount-G™ with DAPI and analyzed with the BZ-9000 BIOREVO System (Keyence).
Herpes virus infections and specifically HSV-1 infections are correlated to intracellular R-Amyloid and tau-protein deposition in cells of the CNS in progression of Alzheimer's disease. […] Therefore, in a first step the infectability of SH-SYSY neuroblastoma cells with HHV-1 was tested. After incubation of SH-SYSY cultures with HHV-1 (MOI=8), an infection rate of >90% (qualitatively) was detected that came along with high intracellular β-Amyloid deposition.

`COc1cc(-c2[o+]c3cc(O)cc(O)c3cc2O[C@@H]2O[C@H](CO)[C@@H](O)[C@H](O)[C@H]2O)cc(O)c1O` [Pet3G, Petunidin 3-glucoside]: the “inhibition of HSV-1 by single anthocyanins” value in the experiment on HSV-1 was “Neither C3G nor D3Gal or Pet3G inhibited HSV-1”.
On the same count and under the same terms, the result for `OC[C@H]1O[C@@H](Oc2cc3c(O)cc(O)cc3[o+]c2-c2cc(O)c(O)c(O)c2)[C@H](O)[C@@H](O)[C@H]1O` [D3Gal, Delphinidin 3-galactoside] reads “Neither C3G nor D3Gal or Pet3G inhibited HSV-1”; that for `OC[C@H]1O[C@@H](Oc2cc3c(O)cc(O)cc3[o+]c2-c2ccc(O)c(O)c2)[C@H](O)[C@@H](O)[C@@H]1O` [C3G, Cyanidin 3-glucoside], “Neither C3G nor D3Gal or Pet3G inhibited HSV-1”.
`OC[C@H]1OC(Oc2cc3c(O)cc(O)cc3[o+]c2-c2cc(O)c(O)c(O)c2)[C@H](O)C(O)C1O` (stereo partly drawn) [D3G, Delphinidin 3-glucoside]: the “viral inhibition of HHV-8 (in words)” value with HHV-8 is given as “identified as an active ingredient in Healthberry® 865”. Moreover, the “inhibition of HSV-1 by single anthocyanins” value in the experiment with HSV-1 is “decreased viral infectivity like Healthberry® 865”.
Consider maltodextrin, for which, in experiment [1], the “infected and β-Amyloid-positive cells” value is recorded as “HHV-1-infected cells were mostly β-Amyloid-positive”.

Source of the values: patent US20220184164A1, “PREPARATIONS CONTAINING BERRY EXTRACTS FOR USE IN THE PROPHYLAXIS AND/OR TREATMENT OF VIRAL INFECTIONS CAUSED BY HERPESVIRIDAE” (Evonik Operations GmbH, priority 2019, published 2022).
